Literature values, collected in patent publication US20060216350A1, “Ganglionic blocking agents for the treatment of epithelial diseases” (priority 2005, published 2006).

Tested on: hand warts
Conditions: patients with hand warts; Sterling et al. 2001

Q: Which “clearance of warts, % of patients” value does the source give for O=C(O)c1ccccc1O [Salicylic acid] here?
A: Its value is 67%.
